From the supplement of paper PMC11208160

assay: recombinant UMI read abundance after kanamycin selection (control-corrected) (log10(CPM+1)); higher = more efficient recombination; extreme values may be limits of the assay; sequences stand for … in AGTGCAGAGAAAATCGGCCAGTTTTCTCTGCCTGCAGTCCGCATGCCGTGGGACCCCTTGGGTTCTAACCTGTTGCCTAGATTTATGCAGCGGACTGCCTTTCTCCCAAAGTGATAAACCGG…AGGTTGGTTTCACT; site = the 11-nt donor
In short: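 In a pooled Escherichia coli screen for the IS621 bridge recombinase, donor and donor-binding-loop pairs were each placed with a 12-nt UMI on a plasmid bearing a promoterless kanamycin gene. This library was co-electroporated with a target plasmid encoding a fixed target and T7-inducible recombinase, and cells were plated either on IPTG (0.07 mM) plus kanamycin or without selection, in two replicates each. Recombinant UMIs were PCR-amplified across the donor–target junction and sequenced, and counts were converted to CPM, averaged over replicates, scaled by control-derived factors and reported as log10(CPM+1).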
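Further: IS621 bridge recombinase in Escherichia coli cells against a fixed T5 target plasmid.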

Sequence | recombinant UMI read abundance (log10)
AGGAATACATGGACCGGTTTTCCCGGTAATCCGTATTTGCA (site AGGAATACTTG) | 2.11
AGGAATACATGGACCGGTTTTCCCGGTAATCCGTATTTGGA (site AGGAAGACTTG) | 0.341
AGGAATACATGGACCGGTTTTCCCGGTAATCCGTATTTGGA (site AGGAATACTTC) | 1.69
AGGAATACATGGACCGGTTTTCCCGGTAATCCGTATTTGGG (site AGGAATACTCC) | 0.394
AGGACAACATGGACCGGTTTTCCCGGTAATCCGTATTTGAC (site AGGACAACTGT) | 2.26
AGGACAACATGGACCGGTTTTCCCGGTAATCCGTATTTGAC (site AGGACCACTGT) | 0
AGGACAACATGGACCGGTTTTCCCGGTAATCCGTATTTGAC (site AGGACGACTGT) | 0
AGGACAACATGGACCGGTTTTCCCGGTAATCCGTATTTGAC (site AGGACTACTGT) | 0
AGGACGACATGGACCGGTTTTCCCGGTAATCCGTATTTGAC (site AGGACAACTGT) | 2.09
AGGACGACATGGACCGGTTTTCCCGGTAATCCGTATTTGAC (site AGGACCACTGT) | 0.378
AGGACGACATGGACCGGTTTTCCCGGTAATCCGTATTTGAC (site AGGACGACTGT) | 3.14
AGGACGACATGGACCGGTTTTCCCGGTAATCCGTATTTGAC (site AGGACTACTGT) | 0
AGGACGACATGGACCGGTTTTCCCGGTAATCCGTATTTGCT (site AGGAAGACTTG) | 0
AGGACGACATGGACCGGTTTTCCCGGTAATCCGTATTTGCT (site AGGACGACTAG) | 2.52
AGGACTACATGGACCGGTTTTCCCGGTAATCCGTATTTGAA (site AGGACTACTAT) | 1.41
AGGACTACATGGACCGGTTTTCCCGGTAATCCGTATTTGAA (site AGGACTACTCT) | 0.127
AGGACTACATGGACCGGTTTTCCCGGTAATCCGTATTTGAA (site AGGACTACTGT) | 0.477
AGGACTACATGGACCGGTTTTCCCGGTAATCCGTATTTGAA (site AGGACTACTTT) | 1.13
AGGACTACATGGACCGGTTTTCCCGGTAATCCGTATTTGCC (site AGGACTACTGA) | 0
AGGACTACATGGACCGGTTTTCCCGGTAATCCGTATTTGCC (site AGGACTACTGC) | 0
AGGACTACATGGACCGGTTTTCCCGGTAATCCGTATTTGCC (site AGGACTACTGG) | 2.23
AGGACTACATGGACCGGTTTTCCCGGTAATCCGTATTTGCC (site AGGACTACTGT) | 0
AGGACTGCATGGACCGGTTTTCCCGGTAATCCGTATTTGAG (site AGGACTGCTCT) | 1.79

Sequence | recombinant UMI read abundance (log10)
AGGAGGACATGGACCGGTTTTCCCGGTAATCCGTATTTGCA (site AGGAAGACTTG) | 2.35
AGGAGGACATGGACCGGTTTTCCCGGTAATCCGTATTTGCA (site AGGACGACTTG) | 0.4
AGGAGGACATGGACCGGTTTTCCCGGTAATCCGTATTTGCA (site AGGAGGACTTG) | 2.56
AGGAGGACATGGACCGGTTTTCCCGGTAATCCGTATTTGCA (site AGGATGACTTG) | 0
AGGAGTACATGGACCGGTTTTCCCGGTAATCCGTATTTGAC (site AGGAATACTGT) | 1.29
AGGAGTACATGGACCGGTTTTCCCGGTAATCCGTATTTGAC (site AGGACTACTGT) | 0.225
AGGAGTACATGGACCGGTTTTCCCGGTAATCCGTATTTGAC (site AGGAGTACTGT) | 2.08
AGGAGTACATGGACCGGTTTTCCCGGTAATCCGTATTTGAC (site AGGATTACTGT) | 0.00638
AGGAGTACATGGACCGGTTTTCCCGGTAATCCGTATTTGTC (site AGGAGTACTGA) | 2.17
AGGAGTCCATGGACCGGTTTTCCCGGTAATCCGTATTTGAA (site AGGAGTCCTTT) | 1.07
AGGATAACATGGACCGGTTTTCCCGGTAATCCGTATTTGGC (site AGGATAACTGC) | 2.73
AGGATGACATGGACCGGTTTTCCCGGTAATCCGTATTTGTA (site AGGAAGACTTG) | 0
AGGATGACATGGACCGGTTTTCCCGGTAATCCGTATTTGTA (site AGGATGACTTA) | 2.6
AGGATGGCATGGACCGGTTTTCCCGGTAATCCGTATTTGGT (site AGGATGGCTAC) | 1.79
AGGATTCCATGGACCGGTTTTCCCGGTAATCCGTATTTGTT (site AGGATTCCTAA) | 0.226
AGGATTCCATGGACCGGTTTTCCCGGTAATCCGTATTTGTT (site CGGAATCCTAA) | 0.0087
AGGCAACCATGGACCGGTTTTCCCGGTAATCCGTATTTGGG (site AGGCAACCTCC) | 0.112
AGGCCGACATGGACCGGTTTTCCCGGTAATCCGTATTTGCA (site AGGAAGACTTG) | 0
AGGCCGACATGGACCGGTTTTCCCGGTAATCCGTATTTGCA (site AGGCCGACTTG) | 1.81
AGGCCTGCATGGACCGGTTTTCCCGGTAATCCGTATTTGAA (site AGGCCTGCTTT) | 0.996
AGGCTTCCATGGACCGGTTTTCCCGGTAATCCGTATTTGCG (site AGGCTTCCTCG) | 0.745
AGGGAGACATGGACCGGTTTTCCCGGTAATCCGTATTTGCA (site AGGAAGACTTG) | 0.796
AGGGAGACATGGACCGGTTTTCCCGGTAATCCGTATTTGCA (site AGGCAGACTTG) | 0.473

Sequence | recombinant UMI read abundance (log10)
AGGGAGACATGGACCGGTTTTCCCGGTAATCCGTATTTGCA (site AGGGAGACTTG) | 2.5
AGGGAGACATGGACCGGTTTTCCCGGTAATCCGTATTTGCA (site AGGTAGACTTG) | 0.162
AGGGATCCATGGACCGGTTTTCCCGGTAATCCGTATTTGTT (site AGGGATCCTAA) | 0.662
AGGGATCCATGGACCGGTTTTCCCGGTAATCCGTATTTGTT (site CGGAATCCTAA) | 0
AGGGCTACATGGACCGGTTTTCCCGGTAATCCGTATTTGCG (site AGGGCTACTCG) | 1.42
AGGGTGACATGGACCGGTTTTCCCGGTAATCCGTATTTGCA (site AGGAAGACTTG) | 0.666
AGGGTGACATGGACCGGTTTTCCCGGTAATCCGTATTTGCA (site AGGGTGACTTG) | 2.63
AGGTACCCATGGACCGGTTTTCCCGGTAATCCGTATTTGTG (site AGGTACCCTCA) | 0.0796
AGGTACCCATGGACCGGTTTTCCCGGTAATCCGTATTTGTG (site AGGTCCCCTCA) | 0.0158
AGGTACCCATGGACCGGTTTTCCCGGTAATCCGTATTTGTG (site AGGTGCCCTCA) | 0.0127
AGGTACCCATGGACCGGTTTTCCCGGTAATCCGTATTTGTG (site AGGTTCCCTCA) | 0.0248
AGGTACGCATGGACCGGTTTTCCCGGTAATCCGTATTTGAG (site AGGTACGCTCT) | 1.72
AGGTAGACATGGACCGGTTTTCCCGGTAATCCGTATTTGCA (site AGGAAGACTTG) | 1.23
AGGTAGACATGGACCGGTTTTCCCGGTAATCCGTATTTGCA (site AGGCAGACTTG) | 2.47
AGGTAGACATGGACCGGTTTTCCCGGTAATCCGTATTTGCA (site AGGGAGACTTG) | 0.688
AGGTAGACATGGACCGGTTTTCCCGGTAATCCGTATTTGCA (site AGGTAGACTTG) | 2.88
AGGTAGCCATGGACCGGTTTTCCCGGTAATCCGTATTTGCA (site AGGAAGACTTG) | 0
AGGTAGCCATGGACCGGTTTTCCCGGTAATCCGTATTTGCA (site AGGTAGCCTTG) | 0
AGGTAGCCATGGACCGGTTTTCCCGGTAATCCGTATTTGTA (site AGGTAGCCTTA) | 0.215
AGGTAGGCATGGACCGGTTTTCCCGGTAATCCGTATTTGGC (site AAGTAGGCTGC) | 0.588
AGGTAGGCATGGACCGGTTTTCCCGGTAATCCGTATTTGGC (site ACGTAGGCTGC) | 1.87
AGGTAGGCATGGACCGGTTTTCCCGGTAATCCGTATTTGGC (site AGGTAGGCTGC) | 2.65
